Results reported in patent publication US8778958B2, “Synthesis of metabolically stable agents for alcohol and drug abuse” (priority 2008, dated 2014).
Read-outs that look alike come from different tables or passages of the source.

Tests used:
Experiment in all cases: biochemical
Format in all cases: binding
μ-opioid receptor = target: T1, μ-opioid receptor (Homo sapiens, UniProt P35372)
T1 construct: expressed in transfected cells; host or cells: CHO cells

κ-opioid receptor = target: T2, κ-opioid receptor (Homo sapiens, UniProt P41145); details: read-out: Ki (nM) ± SEM, κ
T2 construct: expressed in transfected cells; host or cells: CHO cells
T2 sequence (P41145 whole entry): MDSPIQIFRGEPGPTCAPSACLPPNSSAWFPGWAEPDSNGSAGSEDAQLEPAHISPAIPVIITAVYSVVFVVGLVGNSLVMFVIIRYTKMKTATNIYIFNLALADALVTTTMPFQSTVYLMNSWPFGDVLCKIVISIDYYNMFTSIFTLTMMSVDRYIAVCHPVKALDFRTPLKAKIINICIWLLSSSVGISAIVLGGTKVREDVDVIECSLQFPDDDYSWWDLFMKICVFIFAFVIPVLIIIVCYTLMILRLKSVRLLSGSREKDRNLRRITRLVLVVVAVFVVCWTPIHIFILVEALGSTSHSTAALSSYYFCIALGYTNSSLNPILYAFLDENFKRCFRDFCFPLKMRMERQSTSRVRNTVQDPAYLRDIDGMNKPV

δ-opioid receptor = target: T3, δ-opioid receptor (Homo sapiens, UniProt P41143); details: Table 1b; for Ki: N-oxides; for Inhibition of agonist binding, δ: concentration not given
T3 construct: expressed in transfected cells; host or cells: CHO cells
T3 sequence (P41143 whole entry): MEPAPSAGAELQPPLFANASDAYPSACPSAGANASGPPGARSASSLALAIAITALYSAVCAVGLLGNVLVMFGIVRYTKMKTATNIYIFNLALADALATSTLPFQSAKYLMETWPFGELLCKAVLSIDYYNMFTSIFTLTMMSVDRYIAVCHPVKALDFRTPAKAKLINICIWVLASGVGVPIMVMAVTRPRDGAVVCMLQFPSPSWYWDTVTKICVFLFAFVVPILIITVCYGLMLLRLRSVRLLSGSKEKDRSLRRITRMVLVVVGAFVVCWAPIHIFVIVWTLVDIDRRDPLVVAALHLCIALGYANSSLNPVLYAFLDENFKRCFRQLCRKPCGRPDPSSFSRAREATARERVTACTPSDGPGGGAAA

[1] = Ki (nM) ± SEM, μ, Table 1b, N-oxides

T1 sequence (P35372 whole entry): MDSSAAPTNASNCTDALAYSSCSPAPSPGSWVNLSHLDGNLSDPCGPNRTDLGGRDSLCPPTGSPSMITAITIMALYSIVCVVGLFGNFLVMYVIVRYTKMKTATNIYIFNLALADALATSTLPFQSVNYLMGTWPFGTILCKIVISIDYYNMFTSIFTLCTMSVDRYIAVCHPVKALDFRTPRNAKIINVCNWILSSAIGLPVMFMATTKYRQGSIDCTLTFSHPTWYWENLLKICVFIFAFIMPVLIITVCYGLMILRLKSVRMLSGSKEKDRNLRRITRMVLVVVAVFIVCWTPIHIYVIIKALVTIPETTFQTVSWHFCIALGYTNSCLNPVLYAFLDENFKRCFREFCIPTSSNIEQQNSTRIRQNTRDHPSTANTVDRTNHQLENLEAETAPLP

Row | Compound | Ki (μ-opioid receptor; [1]) [nM] | Ki (κ-opioid receptor) [nM] | Ki (δ-opioid receptor; Ki (nM) ± SEM, δ) [nM] | Inhibition of agonist binding, δ (δ-opioid receptor) [% inh] | Ki (μ-opioid receptor; read-out: Ki (nM) ± SEM, μ) [nM] | Ki (κ-opioid receptor; Table 1b, N-oxides) [nM] | Ki (δ-opioid receptor; read-out: Ki (nM) ± SEM, δ) [nM]
1 | COc1cccc(C(=O)N[C@@H]2CC[C@@]3(O)[C@H]4Cc5ccc(O)c6c5[C@@]3(CC[N+]4([O-])CC3CC3)[C@H]2O6)c1 (stereo partly drawn) [Compound 42, 17-Cyclopropylmethyl-3,14β-dihydroxy-4,5α-epoxy-6β-[(3′-methoxy)benzamido]morphinan-N-oxide] | 49 ± 8.6 | 16 ± 2 | 1050 ± 38 |  |  |  | 
2 | CN(C(=O)c1ccc(I)cc1)[C@H]1CC[C@@]2(O)[C@H]3Cc4ccc(O)c5c4[C@@]2(CC[N+]3([O-])CC2CC2)[C@H]1O5 (stereo partly drawn) [Compound 47, 17-Cyclopropylmethyl-3,14-β-dihydroxy-4,5α-epoxy-6α-N-methyl-[(4′-iodo)benzamido]morphinan-N-oxide] | 27.6 ± 0.8 | 5.9 ± 0.4 | 290 ± 17 |  |  |  | 
3 | Cc1ccc(C(=O)N[C@@H]2CC[C@@]3(O)[C@H]4Cc5ccc(O)c6c5[C@@]3(CC[N+]4(C)[O-])[C@H]2O6)cc1 (stereo partly drawn) [Compound 55, 17-Methyl-3,14β-dihydroxy-4,5α-epoxy-6β-[(4′-methyl)benzamido]morphinan-N-oxide] | 244 ± 8.2 | 1190 ± 134 |  | <50 |  |  | 
4 | COc1ccc(CC(=O)N[C@@H]2CC[C@@]3(O)[C@H]4Cc5ccc(O)c6c5[C@@]3(CC[N+]4([O-])CC3CC3)[C@H]2O6)cc1 (stereo partly drawn) [Compound 39, 17-Cyclopropylmethyl-3,14β-dihydroxy-4,5α-epoxy-6β-[(4′-methoxy)phenylacetamido]morphinan N-oxide] | 78 ± 20 | 10 ± 1 | 472 ± 78 |  |  |  | 
5 | CN(C(=O)c1ccc(Cl)cc1)[C@H]1CC[C@@]2(O)[C@H]3Cc4ccc(O)c5c4[C@@]2(CC[N+]3([O-])CC2CC2)[C@H]1O5 (stereo partly drawn) [Compound 50, 17-Cyclopropylmethyl-3,14-β-dihydroxy-4,5α-epoxy-6α-N-methyl-[(4′-chloro)benzamido]morphinan-N-oxide] |  |  |  |  | 369 ± 18 | 77 ± 8 | 3330 ± 160
6 | O=C(Cc1cccs1)N[C@@H]1CC[C@@]2(O)[C@H]3Cc4ccc(O)c5c4[C@@]2(CC[N+]3([O-])CC2CC2)[C@H]1O5 (stereo partly drawn) [Compound 25, 17-Cyclopropylmethyl-3,14β-dihydroxy-4,5α-epoxy-6β-[(thiophen-2′-yl)acetamido]morphinan-N-oxide] |  |  |  |  | 34.8 ± 2.08 | 13 ± 1 | 752 ± 8.91
7 | COc1cccc(C(=O)N[C@@H]2CC[C@@]3(O)[C@H]4Cc5ccc(O)c6c5[C@@]3(CC[N+]4([O-])CC3CC3)[C@H]2O6)c1 (stereo partly drawn) [Compound 30, 17-Cyclopropylmethyl-3,14β-dihydroxy-4,5α-epoxy-6β-[(3′-methoxy)benzamido]morphinan-N-oxide] | 16 ± 1 | 9.7 ± 0.95 | 444 ± 39.1 |  |  |  | 
8 | O=C(N[C@@H]1CC[C@@]2(O)[C@H]3Cc4ccc(O)c5c4[C@@]2(CC[N+]3([O-])CC2CC2)[C@H]1O5)c1ccc(Cl)c(Cl)c1 (stereo partly drawn) [Compound 43, 17-Cyclopropylmethyl-3,14β-dihydroxy-4,5α-epoxy-6β-[(3′,4′-dichloro)benzamido]morphinan-N-oxide] | 3.6 ± 0.43 | 2 ± 0.2 | 212 ± 11 |  |  |  | 
9 | Cc1ccc(C(=O)N[C@@H]2CC[C@@]3(O)[C@H]4Cc5ccc(O)c6c5[C@@]3(CC[N+]4([O-])CC3CC3)[C@H]2O6)cc1 (stereo partly drawn) [Compound 21, 17-Cyclopropylmethyl-3,14β-dihydroxy-4,5α-epoxy-6β-[(4′-methyl)benzamido]morphinan-N-oxide] | 5.5 ± 0.2 | 3.1 ± 0.16 | 342 ± 12.6 |  |  |  | 
10 | CN(C(=O)c1ccc(Br)cc1)[C@H]1CC[C@@]2(O)[C@H]3Cc4ccc(O)c5c4[C@@]2(CC[N+]3([O-])CC2CC2)[C@H]1O5 (stereo partly drawn) [Compound 26, 17-Cyclopropylmethyl-3,14β-dihydroxy-4,5α-epoxy-6α-N-methyl[(4′-bromo)benzamido]morphinan-N-oxide] | 5.8 ± 0.21 | 2.41 ± 0.19 | 51 ± 5.8 |  |  |  | 
11 | O=C(N[C@@H]1CC[C@@]2(O)[C@H]3Cc4ccc(O)c5c4[C@@]2(CC[N+]3([O-])CC2CC2)[C@H]1O5)c1ccc([N+](=O)[O-])cc1 (stereo partly drawn) [Compound 40, 17-Cyclopropylmethyl-3,14β-dihydroxy-4,5α-epoxy-6β-[(4′-nitro)benzamido]morphinan-N-oxide] | 38 ± 6.5 | 6.7 ± 0.4 | 590 ± 590 |  |  |  | 
12 | O=C(N[C@@H]1CC[C@@]2(O)[C@H]3Cc4ccc(O)c5c4[C@@]2(CC[N+]3([O-])CC2CC2)[C@H]1O5)c1cccc(O)c1 (stereo partly drawn) [Compound 34, 17-Cyclopropylmethyl-3,14β-dihydroxy-4,5α-epoxy-6β-[(3′-hydroxy)benzamido]morphinan-N-oxide] | 34 ± 2 | 49 ± 4 | 1170 ± 101 |  |  |  | 
13 | COc1ccc(C(=O)N[C@H]2CC[C@@]3(O)[C@H]4Cc5ccc(O)c6c5[C@@]3(CC[N+]4([O-])CC3CC3)[C@H]2O6)cc1OC (stereo partly drawn) [Compound 41, 17-Cyclopropylmethyl-3,14β-dihydroxy-4,5α-epoxy-6α-[(3′,4′-dimethoxy)benzamido]morphinan-N-oxide] | 16 ± 2.7 | 30 ± 3 | 51 ± 2.45 |  |  |  | 
14 | NC(=NO)c1cccc(C(=O)NC2CCC3(O)C4Cc5ccc(O)c6c5C3(CC[N+]4([O-])CC3CC3)C2O6)c1 (stereo not drawn) [Compound 52] | 114 ± 3.3 | 26 ± 1.81 | 1220 ± 45 |  |  |  | 
15 | 17-Cyclopropylmethyl-3,14β-dihydroxy-4,5α-epoxy-6α-(6-acetamido-2,3,4,6-tetra-O-benzyl-D-pyranose)morphinan-N-oxide [Compound 36] |  |  |  |  | 308 ± 13 | 18 ± 1 | 1860 ± 144
16 | COc1ccc(C(=O)N[C@@H]2CC[C@@]3(O)[C@H]4Cc5ccc(O)c6c5[C@@]3(CC[N+]4([O-])CC3CC3)[C@H]2O6)cc1OC (stereo partly drawn) [Compound 29, 17-Cyclopropylmethyl-3,14β-dihydroxy-4,5α-epoxy-6β-[(3′,4′-dimethoxy)benzamido]morphinan-N-oxide] | 37 ± 2 | 71 ± 4.87 | 621 ± 16.2 |  |  |  | 
17 | O=C(NC1CCC2(O)C3Cc4ccc(O)c5c4C2(CC[N+]3([O-])CC2CC2)C1O5)c1ccc(C(F)(F)F)c(F)c1 (stereo not drawn) [Compound 56, 17-Cyclopropylmethyl-3,14β-dihydroxy-4,5α-epoxy-6β-[(3′-fluoro-4′-trifluoromethyl)benzamido]morphinan-N-oxide] | 8.3 ± 0.3 | 3.8 ± 0.3 | 352 ± 10 |  |  |  | 
18 | COC(=O)c1ccc(C(=O)N[C@@H]2CC[C@@]3(O)[C@H]4Cc5ccc(O)c6c5[C@@]3(CC[N+]4([O-])CC3CC3)[C@H]2O6)cc1 (stereo partly drawn) [Compound 38, 17-Cyclopropylmethyl-3,14β-dihydroxy-4,5α-epoxy-6β-[(4′-carbomethoxy)benzamido]morphinan-N-oxide] | 30 ± 2.1 | 51 ± 6 | 1390 ± 279 |  |  |  | 
19 | CN(C(=O)c1ccc(I)cc1)C1CCC2(O)C3Cc4ccc(O)c5c4C2(CC[N+]3([O-])CC2CC2)C1O5 (stereo not drawn) [Compound 54, 17-Cyclopropylmethyl-3,14-β-dihydroxy-4,5α-epoxy-6β-N-methyl-[(4′-iodo)benzamido]morphinan-N-oxide] | 148 ± 9.3 | 117 ± 10 | 3060 ± 271 |  |  |  | 
20 | CN(C)c1ccc(C(=O)N[C@@H]2CC[C@@]3(O)[C@H]4Cc5ccc(O)c6c5[C@@]3(CC[N+]4([O-])CC3CC3)[C@H]2O6)cc1 (stereo partly drawn) [Compound 24, 17-Cyclopropylmethyl-3,14β-dihydroxy-4,5α-epoxy-6β-[(4′-dimethylamino)benzamido]morphinan-N-oxide] |  |  |  |  | 478 ± 23 | 227 ± 48.1 | 5850 ± 560
21 | O=C(N[C@@H]1CC[C@@]2(O)[C@H]3Cc4ccc(O)c5c4[C@@]2(CC[N+]3([O-])CC2CC2)[C@H]1O5)c1ccc(C(F)(F)F)cc1 (stereo partly drawn) [Compound 22, 17-Cyclopropylmethyl-3,14β-dihydroxy-4,5α-epoxy-6β-[(4′-trifluoromethyl)benzamido]morphinan-N-oxide] | 1.4 ± 0.03 | 1.9 ± 0.11 | 117 ± 5.18 |  |  |  | 
22 | N#Cc1cccc(C(=O)N[C@@H]2CC[C@@]3(O)[C@H]4Cc5ccc(O)c6c5[C@@]3(CC[N+]4([O-])CC3CC3)[C@H]2O6)c1 (stereo partly drawn) [Compound 53, 17-Cyclopropylmethyl-3,14β-dihydroxy-4,5α-epoxy-6β-[(3′ cyano)benzamido]morphinan-N-oxide] | 117 ± 7.8 | 426 ± 21.5 |  | <50 |  |  | 
23 | CC(C)(C)c1ccc(C(=O)N[C@@H]2CC[C@@]3(O)[C@H]4Cc5ccc(O)c6c5[C@@]3(CC[N+]4([O-])CC3CC3)[C@H]2O6)cc1 (stereo partly drawn) [Compound 23, 17-Cyclopropylmethyl-3,14β-dihydroxy-4,5α-epoxy-6β-[(4′-tert-butyl)benzamido]morphinan-N-oxide] | 1.7 ± 0.07 | 1.9 ± 0.14 | 25 ± 2.38 |  |  |  | 
24 | O=C(N[C@H]1CC[C@@]2(O)[C@H]3Cc4ccc(O)c5c4[C@@]2(CC[N+]3([O-])CC2CC2)[C@H]1O5)c1ccccc1 (stereo partly drawn) [Compound 37, 17-Cyclopropylmethyl-3,14β-dihydroxy-4,5α-epoxy-6α-(benzamido)morphinan-N-oxide] | 37 ± 2.6 | 64 ± 10 | 822 ± 124 |  |  |  | 
25 | O=C(N[C@@H]1CC[C@@]2(O)[C@H]3Cc4ccc(O)c5c4[C@@]2(CC[N+]3([O-])CC2CC2)[C@H]1O5)c1ccc(Cl)cc1 (stereo partly drawn) [Compound 35, 17-Cyclopropylmethyl-3,14β-dihydroxy-4,5α-epoxy-6β-[(4′-chloro)benzamido]morphinan-N-oxide] | 4.7 ± 0.12 | 1.8 ± 0.1 | 219 ± 7.97 |  |  |  | 
26 | O=C(N[C@@H]1CC[C@@]2(O)[C@H]3Cc4ccc(O)c5c4[C@@]2(CC[N+]3([O-])CC2CC2)[C@H]1O5)c1ccccc1 (stereo partly drawn) [Compound 32, 17-Cyclopropylmethyl-3,14β-dihydroxy-4,5α-epoxy-6β-(benzamido)morphinan-N-oxide] | 28 ± 2 | 8.5 ± 0.92 | 813 ± 34 |  |  |  | 
27 | 17-Cyclopropylmethyl-3,14-β-dihydroxy-4,5α-epoxy-6β-N-methyl-(4′-iodo)morphinan-N-oxide [Compound 62] |  |  |  | <50 | 408 ± 11.5 | 224 ± 15.7 | 
